Publication PMC11822212, “High-throughput screening identifies Aurora kinase B as a critical therapeutic target for Merkel cell carcinoma” (Nature Communications, 2025)

What was measured:
[1] = test system: VN-MCC cell lines (MCC13, MCC26, UISO); test: qHTS cell viability, VN-MCC cell lines as a group (mean AUC, VN.MCC.avg); format: cell-based, human; conditions: for VN-MCC_Avg_AUC: mean AUC of VN-MCC cell lines
UISO cells (VN-MCC) = test: qHTS cell viability (CellTiter-Glo, 72 h; primary and follow-up small molecule screen); format: cell-based, human
MCC13 cells (VN-MCC) = test: as above; format: cell-based, human
[2] = test system: VP-MCC cell lines (WAGA, MKL-1, MKL-2); test: qHTS cell viability, VP-MCC cell lines as a group (mean AUC, VP.MCC.avg); format: cell-based, human; conditions: for VP-MCC_Avg_AUC: mean AUC of VP-MCC cell lines
MKL-1 cells (VP-MCC) = test: qHTS cell viability (CellTiter-Glo, 72 h; primary and follow-up small molecule screen); format: cell-based, human
[3] = test system: six MCC cell lines and four control cell lines; test: qHTS cell viability, all 10 cell lines screened; format: cell-based; conditions: Control AUC minus MCC AUC (therapeutic window)
CRL-7250 cells = test: qHTS cell viability (CellTiter-Glo, 72 h; primary screen), control cell line; format: cell-based
MKL-2 cells (VP-MCC) = test: qHTS cell viability (CellTiter-Glo, 72 h; primary and follow-up small molecule screen); format: cell-based, human
[4] = test system: control cell lines (HACAT, HEK293T, CRL-7250, NIH-3T3); test: qHTS cell viability, control cell lines as a group (mean AUC, Control.avg); format: cell-based; conditions: mean AUC of control cell lines
HACAT cells = test: qHTS cell viability (CellTiter-Glo, 72 h; primary screen), control cell line; format: cell-based, human
HEK293T cells = test: as above; format: cell-based, human
MCC26 cells (VN-MCC) = test: qHTS cell viability (CellTiter-Glo, 72 h; primary and follow-up small molecule screen); format: cell-based, human
[5] = test system: MCC cell lines (WAGA, MKL-1, MKL-2, MCC13, MCC26, UISO); test: qHTS cell viability, all six MCC cell lines as a group (mean AUC, MCC.avg); format: cell-based, human
NIH-3T3 cells = test: qHTS cell viability (CellTiter-Glo, 72 h; primary screen), control cell line; format: cell-based, mouse
WAGA cells (VP-MCC) = test: qHTS cell viability (CellTiter-Glo, 72 h; primary and follow-up small molecule screen); format: cell-based, human
[6] = NPC library, 8-point DRC, area under dose-response curve
[7] = NPC library, 8-point DRC, control cell line
[8] = MIPE library, 11-point DRC, sheet S2E
[9] = MIPE library, 11-point DRC, control cell line, sheet S2E

## Nc1ccc(C(=O)NCC(=O)O)cc1 [Aminohippuric acid]
[1]; Control AUC minus VN-MCC AUC
  Control-VN-MCC: 57.9205
[1]; NPC library, Control AUC minus VN-MCC AUC (therapeutic window)
  Control-VN-MCC: 57.9205
[1]; NPC library
  VN-MCC_Avg_AUC: 412.211
UISO cells (VN-MCC); [6]
  UISO_AUC: 434.505
UISO cells (VN-MCC); NPC library, qHTS dose-response AUC, UISO
  UISO_AUC: 434.505
UISO cells (VN-MCC); area under the dose-response curve, UISO cells, AUC<450 = reduced viability
  UISO_AUC: 434.505
MCC13 cells (VN-MCC); [6]
  MCC13_AUC: 391.573
MCC13 cells (VN-MCC); NPC library, qHTS dose-response AUC, MCC13
  MCC13_AUC: 391.574
MCC13 cells (VN-MCC); area under the dose-response curve, MCC13 cells, AUC<450 = reduced viability
  MCC13_AUC: 391.574
[2]; Control AUC minus VP-MCC AUC
  Control-VP-MCC: 53.2142
[2]; NPC library, Control AUC minus VP-MCC AUC (therapeutic window)
  Control-VP-MCC: 53.2142
[2]; NPC library
  VP-MCC_Avg_AUC: 416.917
MKL-1 cells (VP-MCC); [6]
  MKL1_AUC: 395.372
MKL-1 cells (VP-MCC); NPC library, qHTS dose-response AUC, MKL1
  MKL1_AUC: 395.372
MKL-1 cells (VP-MCC); {}
  MKL1_AUC: 395.372
[3]; NPC library
  Control-MCC: 55.5673
CRL-7250 cells; [7]
  CRL7250_AUC: 477.44
CRL-7250 cells; NPC library, qHTS dose-response AUC, CRL7250 control
  CRL7250_AUC: 477.44
CRL-7250 cells; area under the dose-response curve, CRL7250 control cells, AUC<450 = reduced viability
  CRL7250_AUC: 477.44
MKL-2 cells (VP-MCC); [6]
  MKL2_AUC: 407.303
MKL-2 cells (VP-MCC); NPC library, qHTS dose-response AUC, MKL2
  MKL2_AUC: 407.303
MKL-2 cells (VP-MCC); area under the dose-response curve, MKL-2 cells, AUC<450 = reduced viability
  MKL2_AUC: 407.303
[4]; NPC library
  Control_Avg_AUC: 470.131
HACAT cells; [7]
  HACAT_AUC: 481.404
HACAT cells; NPC library, qHTS dose-response AUC, HACAT control
  HACAT_AUC: 481.404
HACAT cells; area under the dose-response curve, HACAT control cells, AUC<450 = reduced viability
  HACAT_AUC: 481.404
HEK293T cells; [7]
  HEK293T_AUC: 467.378
HEK293T cells; NPC library, qHTS dose-response AUC, HEK293T control
  HEK293T_AUC: 467.377
HEK293T cells; area under the dose-response curve, HEK293T control cells, AUC<450 = reduced viability
  HEK293T_AUC: 467.377
MCC26 cells (VN-MCC); [6]
  MCC26_AUC: 410.554
MCC26 cells (VN-MCC); NPC library, qHTS dose-response AUC, MCC26
  MCC26_AUC: 410.554
MCC26 cells (VN-MCC); area under the dose-response curve, MCC26 cells, AUC<450 = reduced viability
  MCC26_AUC: 410.554
[5]; NPC library, mean AUC of all 6 MCC cell lines
  MCC_Avg_AUC: 414.564
[5]; NPC library, mean AUC of six MCC cell lines
  MCC_Avg_AUC: 414.564
NIH-3T3 cells; [7]
  NIH3T3_AUC: 454.303
NIH-3T3 cells; NPC library, qHTS dose-response AUC, NIH3T3 control
  NIH3T3_AUC: 454.303
NIH-3T3 cells; area under the dose-response curve, NIH3T3 control cells, AUC<450 = reduced viability
  NIH3T3_AUC: 454.303
WAGA cells (VP-MCC); [6]
  WAGA_AUC: 448.077
WAGA cells (VP-MCC); NPC library, qHTS dose-response AUC, WAGA
  WAGA_AUC: 448.077
WAGA cells (VP-MCC); area under the dose-response curve, WAGA cells, AUC<450 = reduced viability
  WAGA_AUC: 448.077

## O=c1cc(-c2ccc(O)cc2)oc2cc(O)cc(O)c12 [Apigenin]
[1]; MIPE library, Control AUC minus VN-MCC AUC (therapeutic window), sheet S2E
  Control-VN-MCC: -46.0631
[1]; MIPE library, sheet S2E
  VN-MCC_Avg_AUC: 506.237
UISO cells (VN-MCC); [8]
  UISO_AUC: 485.478
UISO cells (VN-MCC); follow-up screen, UISO, replicate 1
  Area under the dose-response curve (AUC) UISO Replicate 1: 472.2
UISO cells (VN-MCC); follow-up screen, UISO, replicate 2
  Area under the dose-response curve (AUC) UISO Replicate 2: 489.3
UISO cells (VN-MCC); follow-up screen, UISO, replicate 3
  Area under the dose-response curve (AUC) UISO Replicate 3: 503.1
MCC13 cells (VN-MCC); [8]
  MCC13_AUC: 501.623
MCC13 cells (VN-MCC); follow-up screen, MCC13, replicate 1
  Area under the dose-response curve (AUC) MCC13 Replicate 1: 539.3
MCC13 cells (VN-MCC); follow-up screen, MCC13, replicate 2
  Area under the dose-response curve (AUC) MCC13 Replicate 2: 539.6
MCC13 cells (VN-MCC); follow-up screen, MCC13, replicate 3
  Area under the dose-response curve (AUC) MCC13 Replicate 3: 514.9
[2]; MIPE library, Control AUC minus VP-MCC AUC (therapeutic window), sheet S2E
  Control-VP-MCC: 92.024
[2]; MIPE library, sheet S2E
  VP-MCC_Avg_AUC: 368.15
MKL-1 cells (VP-MCC); [8]
  MKL1_AUC: 377.491
MKL-1 cells (VP-MCC); follow-up screen, MKL-1, replicate 1
  Area under the dose-response curve (AUC) MKL-1 Replicate 1: 510.1
MKL-1 cells (VP-MCC); follow-up screen, MKL-1, replicate 2
  Area under the dose-response curve (AUC) MKL-1 Replicate 2: 521.0
MKL-1 cells (VP-MCC); follow-up screen, MKL-1, replicate 3
  Area under the dose-response curve (AUC) MKL-1 Replicate 3: 502.5
[3]; MIPE library, sheet S2E
  Control-MCC: 22.9804
CRL-7250 cells; [9]
  CRL7250_AUC: 438.96
MKL-2 cells (VP-MCC); [8]
  MKL2_AUC: 357.96
MKL-2 cells (VP-MCC); follow-up screen, MKL-2, replicate 1
  Area under the dose-response curve (AUC) MKL-2 Replicate 1: 530.0
MKL-2 cells (VP-MCC); follow-up screen, MKL-2, replicate 2
  Area under the dose-response curve (AUC) MKL-2 Replicate 2: 507.8
MKL-2 cells (VP-MCC); follow-up screen, MKL-2, replicate 3
  Area under the dose-response curve (AUC) MKL-2 Replicate 3: 497.7
[4]; MIPE library, sheet S2E
  Control_Avg_AUC: 460.174
HACAT cells; [9]
  HACAT_AUC: 470.945
HEK293T cells; [9]
  HEK293T_AUC: 459.794
MCC26 cells (VN-MCC); [8]
  MCC26_AUC: 531.61
MCC26 cells (VN-MCC); follow-up screen, MCC26, replicate 1
  Area under the dose-response curve (AUC) MCC26 Replicate 1: 480.1
MCC26 cells (VN-MCC); follow-up screen, MCC26, replicate 2
  Area under the dose-response curve (AUC) MCC26 Replicate 2: 461.0
MCC26 cells (VN-MCC); follow-up screen, MCC26, replicate 3
  Area under the dose-response curve (AUC) MCC26 Replicate 3: 496.4
[5]; MIPE library, mean AUC of six MCC cell lines, sheet S2E
  MCC_Avg_AUC: 437.193
NIH-3T3 cells; [9]
  NIH3T3_AUC: 470.997
WAGA cells (VP-MCC); [8]
  WAGA_AUC: 368.999
WAGA cells (VP-MCC); follow-up screen, WAGA, replicate 1
  Area under the dose-response curve (AUC) WAGA Replicate 1: 549.1
WAGA cells (VP-MCC); follow-up screen, WAGA, replicate 2
  Area under the dose-response curve (AUC) WAGA Replicate 2: 497.7
WAGA cells (VP-MCC); follow-up screen, WAGA, replicate 3
  Area under the dose-response curve (AUC) WAGA Replicate 3: 481.5
